Laboratory results published in article PMC5891386 (Bioorganic & medicinal chemistry, 2018).

Legend:
PHGDH = conditions: cited from earlier work
[1] = Aqueous kinetic solubility; type: physicochemical; conditions: pH 7.4
[2] = test system: aspartate levels in cells; conditions: irrespective of PHGDH levels; cited from earlier work

Compound | efficacy in vivo (PHGDH) | Aqueous Solubility (kinetic) [1] | other results
O=C(N/N=C/c1cc([N+](=O)[O-])ccc1O)c1ccc(O)cc1O [PKUMDL-WQ-2101] | efficacious in vivo | – | –
CCNC(=S)N/N=C/c1ccc(-c2ccc(C(=O)O)c(Cl)c2)o1 [PKUMDL-WQ-2201] | efficacious in vivo | – | –
Cc1cc(C)nc(NC(=S)N2CCC(Nc3cccc(C(F)(F)F)c3)CC2)c1 [Compound 37] | – | below the limits of quantitation | –
Cc1cc(C)nc(NC(=S)N2CCCC(Nc3ccc(C(F)(F)F)cc3)C2)c1 (centres unmarked) [Compound 33] | – | below the limits of quantitation | –
Cc1cc(C)nc(NC(=S)N2CCN(c3ccc(C(F)(F)F)cn3)CC2)c1 [Compound 27, N-(4,6-dimethylpyridin-2-yl)-4-(5-(trifluoromethyl)pyridin-2-yl)piperazine-1-carbothioamide] | – | – | aspartate levels in cells [2]: reduce aspartate levels in cells
